Active and inactive are the calls of the source. The calls are words filed in the database; no cut-off is given here.
How the values were obtained:
[1] = Cytotoxicity against C57BL6/J mouse brown Preadipocyte assessed as decrease in cell viability > 8 uM measured for 24 hrs by trypan blue staining based hemocytometer analysis; type: toxicity
[2] = Cytotoxicity against C57BL6/J mouse brown Preadipocyte assessed as decrease in cell viability at 4 uM measured for 24 hrs by trypan blue staining based hemocytometer analysis; type: toxicity
[3] = Inhibition of adipogenic differentiation in C57BL/6J mouse brown Preadipocyte assessed as reduction in neutral lipid content at 4 uM by Oil Red O staining based light microscopy; type: functional
[4] = Effect on Pparg1 mRNA level in mouse Adipocyte by qRT-PCR analysis; type: functional
[5] = Effect on Pparg2 mRNA level in mouse Adipocyte by qRT-PCR analysis; type: functional
[6] = Effect on CEBPA mRNA level in mouse Adipocyte by qRT-PCR analysis; type: functional
[7] = Effect on CEBPB mRNA level in mouse Adipocyte by qRT-PCR analysis; type: functional
[8] = Downregulation of C/EBPdelta protein expression level in mouse Adipocyte by Western blot analysis; type: functional
Adipocyte [9] = assay: Downregulation of C/EBPalpha protein expression level in mouse Adipocyte by Western blot analysis; type: functional, cell-based
Adipocyte [10] = assay: Downregulation of C/EBPbeta protein expression level in mouse Adipocyte by Western blot analysis; type: functional, cell-based
Adipocyte [11] = assay: Downregulation of C/EBPdelta protein expression level in mouse brown Adipocyte by Western blot analysis; type: functional, cell-based
Adipocyte [12] = assay: Effect on C/EBPdelta mRNA level in mouse brown Adipocyte by qRT-PCR analysis; type: functional, cell-based
[13] = Effect on CD36 mRNA level in mouse Adipocyte by qRT-PCR analysis; type: functional
Adipocyte [14] = assay: Potentiation of CL-316243-stimulated mouse Brown adipocyte activation assessed as increase in Ucp1 expression at 4 uM pretreated with compound for 9 hr followed by CL-316243 induction and measured after 8 hrs by qRT-PCR analysis; type: functional, cell-based; conditions: time 17.0 hrs
Adipocyte [15] = assay: Potentiation of CL-316243-stimulated mouse Brown adipocyte activation assessed as increase in CIDEA mRNA expression at 4 uM pretreated with compound for 9 hr followed by CL-316243 induction and measured after 8 hrs by qRT-PCR analysis; type: functional, cell-based; conditions: time 17.0 hrs
Adipocyte [16] = assay: Potentiation of CL-316243-stimulated mouse Brown adipocyte activation assessed as increase in ELOVL3 mRNA expression at 4 uM pretreated with compound for 9 hr followed by CL-316243 induction and measured after 8 hrs by qRT-PCR analysis; type: functional, cell-based; conditions: time 17.0 hrs
Adipocyte [17] = assay: Potentiation of CL-316243-stimulated mouse Brown adipocyte activation assessed as increase in ELVOL6 mRNA expression at 4 uM pretreated with compound for 9 hr followed by CL-316243 induction and measured after 8 hrs by qRT-PCR analysis; type: functional, cell-based; conditions: time 17.0 hrs
Adipocyte [18] = assay: Potentiation of CL-316243-stimulated mouse Brown adipocyte activation assessed as increase in PPARA mRNA expression at 4 uM pretreated with compound for 9 hr followed by CL-316243 induction and measured after 8 hrs by qRT-PCR analysis; type: functional, cell-based; conditions: time 17.0 hrs
Adipocyte [19] = assay: Potentiation of CL-316243-stimulated mouse Brown adipocyte activation assessed as increase in CPT1a mRNA expression at 4 uM pretreated with compound for 9 hr followed by CL-316243 induction and measured after 8 hrs by qRT-PCR analysis; type: functional, cell-based; conditions: time 17.0 hrs
Adipocyte [20] = assay: Potentiation of CL-316243-stimulated mouse Brown adipocyte activation assessed as increase in CTP1B mRNA expression at 4 uM pretreated with compound for 9 hr followed by CL-316243 induction and measured after 8 hrs by qRT-PCR analysis; type: functional, cell-based; conditions: time 17.0 hrs
Adipocyte [21] = assay: Potentiation of CL-316243-stimulated mouse Brown adipocyte activation assessed as increase in CPT2 mRNA expression at 4 uM pretreated with compound for 9 hr followed by CL-316243 induction and measured after 8 hrs by qRT-PCR analysis; type: functional, cell-based; conditions: time 17.0 hrs
Adipocyte [22] = assay: Potentiation of CL-316243-stimulated mouse Brown adipocyte activation assessed as increase in FGF21 mRNA expression at 4 uM pretreated with compound for 9 hr followed by CL-316243 induction and measured after 8 hrs by qRT-PCR analysis; type: functional, cell-based; conditions: time 17.0 hrs

Structure (SMILES): COc1c(C)c(O)c2c(=O)c(OC)c(-c3ccc(O)cc3)oc2c1OC
- Activity [1]: Non-Toxic
- Activity [2]: Non-Toxic
- inhibition at 4 µM [3]: 54.8%
- Activity [4]: 50.3%
- Activity [5]: 50.3%
- Activity [6]: 50.3%
- Activity [7]: 50.3%
- Activity [8]: 31.93%
- Activity (Adipocyte [9]): inactive
- Activity (Adipocyte [10]): inactive
- Activity (Adipocyte [11]): Active
- Activity (Adipocyte [12]): Active
- Activity [13]: 24.18%
- Activity (Adipocyte [14]): inactive
- Activity (Adipocyte [15]): inactive
- Activity (Adipocyte [16]): inactive
- Activity (Adipocyte [17]): inactive
- Activity (Adipocyte [18]): inactive
- Activity (Adipocyte [19]): inactive
- Activity (Adipocyte [20]): inactive
- Activity (Adipocyte [21]): inactive
- Activity (Adipocyte [22]): inactive

Reference: ChEMBL document CHEMBL5357004 (J Nat Prod, 2024)
